In patent US8097625B2, “Combination of sedative and a neurotransmitter modulator, and methods for improving sleep quality and treating depression” (priority 2003, dated 2012):

Tests used:
[1] = tested on: subjects with insomnia related to major depressive disorder; assay: DREAMDD clinical study: Hamilton Depression Rating Scale (HAMD17); assay type: in vivo, human
Experimental: The change from baseline to each double-blind, post-treatment visit in the HAM-D-17 score as well as the change from baseline to each double-blind, weekly, post-treatment assessments in the HAM-D-6 (Bech) scores and HAM-D-6 (Maier) scores was presented descriptively (n, mean, median, standard deviation, minimum, 25th percentile, median, 75th percentile, and maximum) by treatment. Treatment comparisons were performed at each assessed time point. The analysis compared the eszopiclone 3 mg group to placebo using an analysis of variance model (ANOVA) with treatment and site as fixed effects. The analysis was performed using the SAS MIXED procedure.
Hamilton Depression Rating Scale (HAM-D17): During this analysis, a medical professional evaluates the patient according to seventeen criteria by selecting the response that best characterizes the patient's behavior during the past week. The criteria and responses are based on that described in Br. J. Soc. Clin. Psychol. 6: 278-296 (1967) and are reproduced below. Question 1: Depressed mood (Sadness, hopeless, helpless, worthless); Response: 0—Absent, 1—These feeling states indicated only on questioning, 2—These feeling states spontaneously reported verbally, 3—Communicates feeling states non-verbally i.e., through facial expression, posture, voice, and tendency to weep, or 4—Patient report virtually only these feeling states in their spontaneous verbal and non-verbal communication. Question 2: Feeling of guilt; Response: 0—Absent, 1—Self reproach, feels they have let people down, 2—Ideas of guilt or rumination over past errors or sinful deeds, 3—Present illness is a punishment and/or has delusions of guilt, or 4—Hears accusatory or denunciatory voices and/or experiences threatening visual hallucinations. Question 3: Suicide; Response: 0—Absent, 1—Feels life is not worth living, 2—Wishes they were dead or any thoughts of possible death to self, 3—Suicide ideas or gesture, 4-Attempts at suicide (any serious attempt rates 4). Question 4: Insomnia early; Response: 0—No difficulty falling asleep; 1—Complains of occasional difficulty falling asleep—i.e., more than ½ hour; or 2—complains of nightly difficulty falling asleep. Question 5: Insomnia middle; Response: 0—No difficulty, 1—patient complains of being restless and disturbed during the night, or 2—Waking during the night—any getting out of bed rates 2 (except for purposes of voiding). Question 6: Insomnia Late; Response: 0—No difficulty, 1—Waking in early hours of the morning but goes back to sleep, or 2—Unable to fall asleep again if they get out of bed. […] Question 8: Retardation (Slowness of thought and speech; impaired ability to concentrate; decreased motor activity); Response: 0—Normal speech and thought, 1—Slight retardation at interview, 2—Obvious retardation at interview, 3—Interview difficult, or 4—Complete stupor. Question 9: Agitation; Response: 0—None; 1—Fidgetiness; 2—Playing with hands, hair, etc.; 3—Moving about, can't sit still; or 4—Hand wringing, nail biting, hair-pulling, biting of lips. Question 10: Anxiety psychic: 0—No difficulty, 1—Subjective tension and irritability, 2—Worrying about minor matters, 3—Apprehensive attitude apparent in face or speech, or 4—Fears expressed without questioning. Question 11: Anxiety somatic (Physiological concomitants of anxiety, such as:—Gastro-intestinal: dry mouth, wind, indigestion, diarrhea, cramps, belching.—Cardio-vascular: palpitations, headaches.—Respiratory: hyperventilation, sighing.—Urinary frequency—Sweating); Response: 0—Absent, 1—Mild, 2—Moderate, 3—Severe, or 4—Incapacitating. Question 12: Somatic symptoms gastro-intestinal; Response: 0—None, 1—Loss of appetite but eating without staff encouragement and/or heavy feelings in abdomen; or 2—Difficulty eating without staff urging and/or requests or requires laxatives or medication for bowels or medication for gastro-intestinal symptoms. […]

[2] = DREAMDD clinical study: tolerability and adverse events; assay type: in vivo, human; conditions: 8 weeks
Experimental: Safety was assessed by physical examinations, a standard 12-lead ECG, vital signs, clinical laboratory assessments and AE reporting.
Adverse Events (AEs): Subjects were queried in a non-leading manner, without specific prompting (e.g., “How are you feeling?”) to assess whether they are suffering from any adverse events.
Adverse Events: All adverse experiences were coded using the COSTART dictionary (Coding Symbols for a thesaurus of Adverse Event Terms; version 5.0, 1995). Treatment emergent adverse experiences was defined as 1) AEs that occurred or worsened (increased in severity and/or frequency) on or after the first dose of study medication, 2) AEs with a missing start data and a stop date on or after the first dose of study medication, or 3) AEs with both a missing start and stop date. Treatment emergent AEs was summarized by treatment and by COSTART body system and preferred term. AEs that occurred within 14 days after treatment discontinuation was considered treatment-emergent AEs.

CN1CCN(C(=O)OC2c3nccnc3C(=O)N2c2ccc(Cl)cn2)CC1 (single isomer, unassigned; (+)) [Eszopiclone, (+) 6-(5-chloro-2-pyridinyl)-6,7-dihydro-7-oxo-5H-pyrrolo[3,4b]pyrazin-5-yl 4-methylpiperazine-1-carboxylate]
HAMD 17 differences in patients with more severe depression (baseline HAMD 17≧22) ([1]; 3 mg nightly + fluoxetine vs placebo): greater | changes in HAMD17 scores ([1]; Week 4, p=0.02 vs placebo, 3 mg nightly + fluoxetine 20 mg QAM): −9.9 | changes in HAMD17 scores ([1]; Week 8, p<0.001 vs placebo, 3 mg nightly + fluoxetine): −13.8 | responders (50% decrease from baseline HAMD17) ([1]; Week 8, p<0.009 vs placebo, 3 mg nightly + fluoxetine): 74% | remitters (HAMD17≦7) ([1]; Week 8, p<0.02 vs placebo, 3 mg nightly + fluoxetine): 54% | HAMD17 with removal of insomnia items, versus placebo ([1]; Week 8, p<0.03, 3 mg nightly + fluoxetine): significant differences | augmentation effect versus agents currently used for augmentation therapy, such as lithium ([1]; co-administration with fluoxetine): larger | augmentation effect by severity of depression ([1]; end of the 8 week treatment period): most pronounced in the most severely depressed patients | unpleasant taste compared to placebo ([2]; 3 mg QHS + fluoxetine QAM): more common | drop-outs due to AEs versus placebo ([2]; 3 mg nightly + fluoxetine): comparable | tolerability of co-administration with fluoxetine ([2]; 3 mg nightly + fluoxetine, MDD and insomnia): well-tolerated
